The viability is a read-out of living cells in per cent, often relative to untreated cells.

We go through 80 molecules from paper PMC12040169 (PLOS Biology, 2025).

This data set can be described thus: in vitro. To be noted: human, hela cells, % viability.

As to `O=C(Nc1ccc(-c2nc3ccc(-c4nc5ccc(NC(=O)c6cccc7ccccc67)cc5[nH]4)cc3[nH]2)cc1)c1cccc2ccccc12` [CBK261161], the viability at 28.5 h, 10 µM turned out to be 94.4%.
The same measure, in the same setting: to `OCCN1CCN(c2nccc(C(F)(F)F)n2)CC1` [CBK028754] belongs 107%; to `COc1cc(-c2cncc(NCC(C)(C)CO)n2)cc(OC)c1OC` [CBK037854], 105%; to `COc1ccc(C)cc1S(=O)(=O)N1CCN(C(c2ccccc2)c2ccccc2)CC1` [CBK263977], 91.8%.
The same measure, in the same setting: the same measure for `Cc1cc(C)n(CCCNC(=O)c2ncoc2-c2ccc(F)cc2)n1` [CBK282357]: 91.3%; for `O=c1[nH]c2ncc(-c3cccnc3)nc2n1Cc1ccc(Cl)cc1` [CBK064561]: 98.3%.
Regarding `O=C(O)CCc1ccc(-c2ccc(Nc3cccnc3)nc2)cc1` [CBK037768], the viability at 28.5 h, 10 µM came out at 106%.
Still for that read-out and setting: the same measure for `Cc1ccc(C(C)C(=O)N2CCC(O)(c3ccccn3)CC2)cc1` (centres unmarked) [CBK283787]: 86.7%.
Same read-out and setting: the same measure for `O=C(O)c1cccc2c1C(=O)N(Cc1cccnc1)C2` [CBK291193]: 119%; for `COC(=O)C(Nc1cccc(Cl)c1)(c1cc(OC)c(O)c(OC)c1)C(F)(F)F` (centres unmarked) [CBK009591]: 96.6%.
On the same count and under the same terms, to `CN(C)c1ccc(Nc2cc(-c3ccc(OCc4ccccc4)cc3)ncn2)cc1` [CBK090941] belongs 113%; to `COc1ccc(-c2ccc(CNCCCN3CCOCC3)o2)cc1Cl` [CBK278312C], 103%; to `CC(=O)NCCSc1nccnc1N1CCCC1` [CBK105619], 91.7%.
Consider `O=c1c(Cc2ccc(Cl)cc2)c(O)ccn1Cc1ccncc1` [CBK291161], for which the viability at 28.5 h, 10 µM turned out to be 98.7%.
The same measure, in the same setting: to `Cc1ccc(C(=O)Oc2cccc(NC(=O)c3ccco3)c2)cc1S(=O)(=O)N1CCOCC1` [CBK263211] belongs 94.1%.
As to `COc1cccc(CC(=O)NCC(c2cccs2)N2CCOCC2)c1` (centres unmarked) [CBK305621], the viability at 28.5 h, 10 µM came out at 95.9%.
The same measure, in the same setting: the same measure for `NC(=O)N1CCC(C(=O)N2CC3(CCCC3)c3c(F)cccc32)CC1` [CBK304973]: 108%.
Same read-out and setting: to `Cc1cc(-c2cn3cc(C(=O)NCCN(C)C)nc3c(=O)n2C)c(C)o1` [CBK307160] belongs 94.3%; to `CC1CCc2nc(NC(=O)Cn3cccc(C(=O)Nc4ccc(F)cc4)c3=O)sc2C1` (centres unmarked) [CBK286063], 95.5%.
Same read-out and setting: to `CC(C)(C)CC(C)(C)Nc1nc(N)nc(N)n1` [CBK022832] belongs 101%; to `O=C(CCCc1ccccc1)Nc1cccnc1N1CCNCC1` [CBK028256T], 93.1%.
`c1ccc(Cn2cncc2-c2cncn2CCCN2CCCCC2)cc1` [CBK281490]: the viability at 28.5 h, 10 µM was determined as 114%.
Consider `COc1ccc(CCNC(=O)c2ncoc2-c2cccs2)cc1` [CBK283663], for which the viability at 28.5 h, 10 µM is 103%.
On the same count and under the same terms, to `O=C(O)CSc1nc2c(-c3ccco3)c3c(nc2o1)CCCC3` [CBK269266] belongs 104%; to `O=C1N=C(NC2CCCCCC2)SC1C(=O)N1CCCCCC1` (centres unmarked) [CBK085513], 93.1%.
Still for that read-out and setting: the same measure for `COc1cc(NC(=O)c2ccc(-c3cc4ccccc4oc3=O)cc2)ccc1NC(=O)C(C)C` [CBK268601]: 103%; for `Cc1cnc2[nH]c(C3CCCN(C(=O)c4cccnc4C)C3)cc2c1` (centres unmarked) [CBK285169]: 101%; for `Cc1onc(-c2ccccc2)c1CNC(=O)Cn1cc(C)c(=O)[nH]c1=O` [CBK144094]: 87.6%.
Same read-out and setting: the same measure for `Cc1cc(C)n(CCCn2cncc2-c2cn(C)nc2C)n1` [CBK281772]: 94.8%; for `Cc1cccc(CCNC(=O)C2CN(C(=O)C3CCN(C)CC3)C2)c1` [CBK281967]: 98.4%; for `O=C(O)C1C2CCC(O2)C1C(=O)N1CCN(Cc2ccc(Cl)cc2)CC1` (centres unmarked) [CBK286943]: 97.5%.
On to `COC(=O)CCC(=O)N1CCC2(CCN(Cc3ccccc3)C2)C1` (centres unmarked) [CBK136852], for which the viability at 28.5 h, 10 µM was 116%.
The same measure, in the same setting: the same measure for `COc1ccc(CN2CCNC(=O)C2CC(=O)O)c(OC)c1` (centres unmarked) [CBK270072]: 112%; for `O=C1CCC(=O)N1CCOc1nccnc1OC1CCN(CCOc2ccccc2)CC1` [CBK084354]: 101%; for `CC(C)CN1CC2(CCN(C(=O)OCc3ccccc3)CC2)c2ccccc21` [CBK022626C]: 106%.
Still for that read-out and setting: to `O=C(Cn1ncn2c(cc3ccsc32)c1=O)N1CCCCC1` [CBK284195] belongs 85.2%; to `Cc1ccc(C2(C(=O)NCCCn3ccnc3C)CCOCC2)cc1` [CBK281588], 91.6%; to `O=C(c1cccnc1)C1CCN(C(=O)Cc2ccccc2Cl)CC1` [CBK283690], 90.3%.
Same read-out and setting: the same measure for `O=S(=O)(Nc1ccccn1)N1CCOCC1` [CBK269391]: 86.9%.
Turning to `NC(=O)C[S+]([O-])C(c1ccccc1)c1ccccc1` (centres unmarked) [CBK026184], under “bulk resorufin, single well”, the viability at 28.5 h, 10 µM is 102%.
In the case of `CCCCCOc1ccc(Nc2ccc(-c3cccnc3)cn2)cc1` [CBK036948], the viability at 28.5 h, 10 µM was found to be 109%.
The same measure, in the same setting: to `CC(C)C(=O)N1CCC(n2c(=O)oc3ccc(Cl)cc32)CC1` [CBK284339] belongs 79.9%.
Same read-out and setting: to `Cc1nn(C)cc1-c1cncn1Cc1ccccc1CN(C)C` [CBK281985] belongs 102%; to `O=C(O)CC1C(=O)NCCN1Cc1ccccc1Cl` (centres unmarked) [CBK270114], 93%; to `CC(=O)Nc1ccc2nc(Nc3nc4c(F)cccc4s3)sc2c1` [CBK287475], 89.8%.
With `Cn1c(=O)c2c(O)cc(=O)n(Cc3ccccc3)c2n(C)c1=O` [CBK291245], the viability at 28.5 h, 10 µM came to 81.5%.
Still for that read-out and setting: the same measure for `CCN1CCC[C@@H]1CNC(=O)c1ccncc1` [CBK174659]: 113%; for `O=S(=O)(N1CCCCC1)N1CCCN(S(=O)(=O)N2CCCCC2)CC1` [CBK268939]: 85.4%.
Same read-out and setting: the same measure for `O=C(O)CSc1nc2ccc([N+](=O)[O-])cc2s1` [CBK262232]: 88.4%.
Regarding `Cc1nn(Cc2cccc(C(=O)NCc3ccccn3)c2)c(C)c1Cl` [CBK265755], the viability at 28.5 h, 10 µM was determined as 97.7%.
In the case of `C=CCNC(=O)Cn1c(-c2ccc(OC)cc2)cc2cccnc21` [CBK285363], the viability at 28.5 h, 10 µM was determined as 83.2%.
On the same count and under the same terms, the same measure for `COc1ccc(CCN2C(=O)c3ccccc3C2(O)c2ncc[nH]2)cc1OC` (centres unmarked) [CBK262717]: 103%; for `c1ccc2[nH]c(SCCCCCSc3nc4ccccc4[nH]3)nc2c1` [CBK025418]: 101%; for `CC(=O)N1CCc2sccc2C1c1ccc(NCc2ccc(F)cc2F)cc1` (centres unmarked) [CBK286455]: 93.8%.
Still for that read-out and setting: to `CCc1nccn1CCC(=O)NC1CCCN(Cc2ccccc2F)C1` (centres unmarked) [CBK306652] belongs 78.9%.
The same measure, in the same setting: the same measure for `Cc1cc(OCC(=O)Nc2ccc(S(=O)(=O)N3CCOCC3)cc2)ccc1[N+](=O)[O-]` [CBK268114]: 113%.
Turning to `COc1cccc2cc(C(=O)NCc3ccc(Cl)c(Cl)c3)oc12` [CBK149795], the viability at 28.5 h, 10 µM came out at 85.2%.
On the same count and under the same terms, the same measure for `N=C(N)SCCCCCSC(=N)N` [CBK278314B]: 88.2%; for `Cc1cc(NC(=O)C2CC2)sc1C(=O)NC(C)c1ccc(F)cc1F` (centres unmarked) [CBK296625]: 104%.
On to `O=C(NCC1c2ccccc2CCN1C(=O)CN1C(=O)c2ccccc2C1=O)C1CCCCC1` (centres unmarked) [CBK262582], for which the viability at 28.5 h, 10 µM is 90.6%.
On to `CC1CCCC(C)N1S(=O)(=O)c1ccc(NC(=O)CCn2cnc3ccccc3c2=O)cc1` (centres unmarked) [CBK267643], for which the viability at 28.5 h, 10 µM stood at 95.5%.
The same measure, in the same setting: the same measure for `O=C(c1cccnc1)N1CCCC(n2cnc3cc(F)ccc32)C1` (centres unmarked) [CBK284474]: 85.6%.
The same measure, in the same setting: to `CCc1nc2ccc(C(=O)Nc3ccc(NC(C)=O)cc3)cn2c1N(C)C(=O)Cc1ccccc1` [CBK146855] belongs 95.3%; to `Nc1nc(=O)[nH]c2c1ncn2[C@@H]1O[C@H](CO)[C@H](O)C1O` (some centres unmarked) [CBK201282], 93.7%.
With `COc1ccc(C(C)C)cc1-c1cncc(N(C)CCN(C)C)n1` [CBK065364], the viability at 28.5 h, 10 µM was 105%.
On the same count and under the same terms, to `C/C(=N\NC(=O)CCC(=O)Nc1ccc(I)cc1)c1ccc(O)cc1O` [CBK261971] belongs 89.9%; to `CCOC(=O)N1CCC(NS(=O)(=O)c2cc(Br)c(Cl)s2)CC1` [CBK045472], 95.8%.
Still for that read-out and setting: to `O=S(=O)(NCC1CCCO1)c1cccs1` (centres unmarked) [CBK044263] belongs 103%.
On the same count and under the same terms, to `COc1cccc(OCC(=O)NCC(c2ccsc2)N2CCCC2)c1` (centres unmarked) [CBK304630] belongs 89.6%.
Consider `C=Cn1ncc(CN2CCc3[nH]c4ccc(OCC)cc4c3C2)c1C` [CBK282574], for which the viability at 28.5 h, 10 µM worked out at 89.7%.
As to `COc1ccc(C(=O)N2CCN(Cc3ccccc3)CC2)c(OC)n1` [CBK200169], the viability at 28.5 h, 10 µM stood at 99.2%.
Same read-out and setting: the same measure for `CCN(CC)C(=O)[C@@H](C)C1CC[C@@]2(C)CC[C@H](NC(=O)C3CC3)[C@@H](C)[C@@H]2[C@H]1O` (some centres unmarked) [CBK289443]: 97.5%; for `CN1CCC2(CC1)OCc1cc(-c3cccnc3)ccc1O2` [CBK061020]: 94.6%; for `O=S1(=O)CCN(CC2COc3ccccc3O2)CC1` (centres unmarked) [CBK074789]: 88.5%.
In the case of `NS(=O)(=O)c1ccc(NC(=O)CC2SC(=O)NC2=O)cc1` (centres unmarked) [CBK263855], the viability at 28.5 h, 10 µM stood at 98.9%.
Same read-out and setting: the same measure for `CNC(=O)Cn1nc(C)c2cnn(-c3ccccc3)c2c1=O` [CBK287669]: 92.8%; for `O=C(CCc1ccccc1)N1CCC(c2n[nH]c3ncccc23)CC1` [CBK284906]: 94.3%; for `c1ccc2[nH]c(CCCCCc3nc4ccccc4[nH]3)nc2c1` [CBK267694]: 107%.
On the same count and under the same terms, the same measure for `O=C(c1cccc(F)c1)N1CCC(O)(c2cccnc2F)CC1` [CBK284357]: 92.2%; for `CCn1c(C)nnc1SCC(=O)Nc1cc(C(F)(F)F)ccc1Cl` [CBK304382]: 91.7%.
